# Source: US5173297A, “Bacteriocin from Lactococcus lactis subspecies lactis” (Quest International Flavors & Food Ingredients Company …, priority 1991, dated 1992)
# Legend:
# Test in all cases: Spectrum of antimicrobial activity
# Parameters in all cases: key: + = inhibition; - = no inhibition
# Details in all cases: pure, titer 3200 AU/ml
# L. plantarum 355 = format: cell-based, Lactobacillus plantarum
# P. pentosaceus FBB63C = format: cell-based, Pediococcus pentosaceus
# Method: Colonies appearing on the agar plates were screened for antibacterial activity against a selected indicator, which usually predicted a wide antibacterial spectrum. The indicator chosen was Pediococcus pentosaceus FBB63C (Gonzalez, C. F., and B. S. Kunka, Appl. Environ. Microbiol. 53:2534-2538 (1987) and U.S. Pat. No. 4,883,673 to Gonzalez. Antibacterial activity was determined by picking colonies to replicate agar plates containing 1.9% sodium beta-glycerophosphate as buffer and after appearance of colonies overlaying with indicator.
# To ascertain if the antibacterial substance is secreted into liquid medium, the cultures were grown in MRS broth and cell free filtrates of turbid cultures were made and the filtrate posted on a seeded semisolid agar overlay of the indicator. Antibacterial activity was quantitated by assigning arbitrary units. One arbitrary unit (AU) was defined as 5 μl of the culture supernatant yielding a definite, clear zone of inhibition on the indicator lawn. The titer was expressed as the reciprocal of the highest dilution of supernatant showing inhibition.
# L. fermentum 701 = format: cell-based, Lactobacillus fermentum
# P. acidilactici B = format: cell-based, Pediococcus acidilactici
# L. casei 842 = format: cell-based, Lactobacillus casei
# S. mutans V262 = format: cell-based, Streptococcus mutans
# L. monocytogenes 62 = format: cell-based, Listeria monocytogenes
# B. subtilis RM125 = format: cell-based, Bacillus subtilis
# S. mutans GS5 = format: cell-based, Streptococcus mutans
# L. brevis 329 = format: cell-based, Lactobacillus brevis
# L. monocytogenes 38 = format: cell-based, Listeria monocytogenes
# L. casei 326 = format: cell-based, Lactobacillus casei
# B. subtilis amylase^+ = format: cell-based, Bacillus subtilis
# L. monocytogenes 36 = format: cell-based, Listeria monocytogenes
# P. acidilactici A = format: cell-based, Pediococcus acidilactici
# L. fermentum 342 = format: cell-based, Lactobacillus fermentum
# L. lactis LLA 2.0 = format: cell-based, Lactococcus lactis
# P. acidilactici C = format: cell-based, Pediococcus acidilactici
# L. monocytogenes 69 = format: cell-based, Listeria monocytogenes
# P. acidilactici D = format: cell-based, Pediococcus acidilactici
# P. acidilactici PAC 1.0 = format: cell-based, Pediococcus acidilactici
# L. lactis LLA 1.0 = format: cell-based, Lactococcus lactis
# L. brevis 888 = format: cell-based, Lactobacillus brevis
# L. monocytogenes 08 = format: cell-based, Listeria monocytogenes
# L. monocytogenes 59 = format: cell-based, Listeria monocytogenes
# L. plantarum 346 = format: cell-based, Lactobacillus plantarum
# L. monocytogenes 04 = format: cell-based, Listeria monocytogenes
substance,measurement,setting,value
nisin [Nisin Pure],inhibition of indicator strain L. plantarum 355,L. plantarum 355,+
same,inhibition of indicator strain P. pentosaceus FBB63C,P. pentosaceus FBB63C,+
same,inhibition of indicator strain L. fermentum 701,L. fermentum 701,+
same,inhibition of indicator strain P. acidilactici B,P. acidilactici B,+
same,inhibition of indicator strain L. casei 842,L. casei 842,+
same,inhibition of indicator strain S. mutans V262,S. mutans V262,-
same,inhibition of indicator strain L. monocytogenes 62,L. monocytogenes 62,+
same,inhibition of indicator strain B. subtilis RM125,B. subtilis RM125,+
same,inhibition of indicator strain S. mutans GS5,S. mutans GS5,+
same,inhibition of indicator strain L. brevis 329,L. brevis 329,+
same,inhibition of indicator strain L. monocytogenes 38,L. monocytogenes 38,+
same,inhibition of indicator strain L. casei 326,L. casei 326,+
same,inhibition of indicator strain B. subtilis amylase^+,B. subtilis amylase^+,+
same,inhibition of indicator strain L. monocytogenes 36,L. monocytogenes 36,+
same,inhibition of indicator strain P. acidilactici A,P. acidilactici A,+
same,inhibition of indicator strain L. fermentum 342,L. fermentum 342,+
same,inhibition of indicator strain L. lactis LLA 2.0,L. lactis LLA 2.0,+
same,inhibition of indicator strain P. acidilactici C,P. acidilactici C,+
same,inhibition of indicator strain L. monocytogenes 69,L. monocytogenes 69,+
same,inhibition of indicator strain P. acidilactici D,P. acidilactici D,+
same,inhibition of indicator strain P. acidilactici PAC 1.0,P. acidilactici PAC 1.0,+
same,inhibition of indicator strain L. lactis LLA 1.0,L. lactis LLA 1.0,+
same,inhibition of indicator strain L. brevis 888,L. brevis 888,+
same,inhibition of indicator strain L. monocytogenes 08,L. monocytogenes 08,+
same,inhibition of indicator strain L. monocytogenes 59,L. monocytogenes 59,+
same,inhibition of indicator strain L. plantarum 346,L. plantarum 346,+
same,inhibition of indicator strain L. monocytogenes 04,L. monocytogenes 04,+
